According to patent publication US12528792B2, “Sulfonamide compounds and the use thereof in the treatment of cancer” (TROBIO THERAPEUTICS PTY LTD, priority 2019, dated 2026):

Columns and labels:
Type in all cases: cell-based
[1] = system: SK-N-SH neuroblastoma cells; experiment: Cytotoxicity assay, MTS viability; conditions: Homo sapiens, 72 hours
Procedure: The ability of compounds of the disclosure to inhibit the proliferation of SK—N—SH neuroblastoma cells was assessed. The SK—N—SH cell line was maintained as a monolayer in Dulbeccos Modified Eagles medium (DMEM) supplemented with 10% foetal bovine serum (FBS) and grown at 37° C. in a humidified atmosphere with 5% CO2. For the cytotoxicity assay, SK—N—SH cells were seeded at a density of 2×10^3 cells per well in 96-well plates. The cells were treated with serial dilutions of the test compounds (1:2 starting concentration 100 µM) and viability measured after 72 hours using a standard MTS assay. Cell viability was normalised to control (vehicle alone) and dose response curves and EC50 values (Table 3) were determined using Graph Pad Prism 6.

A2780 (ovarian) cells = experiment: Anti-proliferative activity, Cell-Titre luminescent viability assay; conditions: Homo sapiens, 72 h exposure, Cell-Titre luminescent reagent
Procedure: (§1) The ability of compounds of the disclosure to inhibit the proliferation of cancer cells representative of non-small cell lung cancer and ovarian cancer (Table 1), and pancreatic cancer, colorectal cancer and prostate cancer (Table 2) was assessed. Briefly, a predetermined number of cells as calculated from cell growth assays for each of the cell lines employed were seeded into their respective culture medium (using ATCC culture parameters—http://www.atcc.org) and cultured for 24 h at 37° C. and 5% CO2 in 96-well culture plates. Once attached, each cell line was then exposed to various concentrations of each respective analogue (100, 30, 10, 3, 1 and 0.3 µM or 30, 10, 3, 1, 0.3 and 0.1 μM), cultured for a further 72 h and exposed to Cell-Titre luminescent reagent (100 μL/well) for a further 30 min. Luminescence was captured using an EnVision multilabel reader and the data for each analogue concentration compared against no treatment control. Cell viability was normalised to control (vehicle alone) and dose response curves, and half maximal effective concentration (EC50) values were determined using Graph Pad Prism 6 (nonlinear regression sigmoidal dose-response variable slope).

A549 (NSCLC) cells = experiment: as above; conditions: Homo sapiens, 72 h exposure, Cell-Titre luminescent reagent
Procedure: as §1

IC50 (A2780 (ovarian) cells) [µM]	IC50 (A549 (NSCLC) cells) [µM]	Structure (SMILES)	IC50 [1] [µM]
> 100	> 100	Cc1ccc(NC(=O)c2ccn(S(=O)(=O)c3ccc4[nH]ccc4c3)c2)cc1O [Compound 25, 1-((1H-indol-5-yl)sulfonyl)-N-(3-hydroxy-4-methylphenyl)-1H-pyrrole-3-carboxamide]	30
2.2	5.2	Cc1ccccc1NC(=O)c1ccn(S(=O)(=O)c2ccc3[nH]ccc3c2)c1 [Compound 45, 1-((1H-indol-5-yl)sulfonyl)-N-(o-tolyl)-1H-pyrrole-3-carboxamide]	27
6.23	14.1	N#Cc1ccc(NC(=O)c2ccn(S(=O)(=O)c3ccc4[nH]ccc4c3)c2)cc1 [Compound 67, 1-((1H-indol-5-yl)sulfonyl)-N-(4-cyanophenyl)-1H-pyrrole-3-carboxamide]	15.7
8.53	16.6	O=C(Nc1ccc(F)c(F)c1)c1ccn(S(=O)(=O)c2ccc3[nH]ccc3c2)c1 [Compound 68, 1-((1H-indol-5-yl)sulfonyl)-N-(3,4-difluorophenyl)-1H-pyrrole-3-carboxamide]	19.1
2.5	8.7	Cc1cccc(NC(=O)c2ccn(S(=O)(=O)c3ccc4[nH]ccc4c3)c2)c1 [Compound 44, 1-((1H-indol-5-yl)sulfonyl)-N-(m-tolyl)-1H-pyrrole-3-carboxamide]	15.2
5.3	11.6	O=C(Nc1ccc(C(F)(F)F)cc1)c1ccn(S(=O)(=O)c2ccc3c(c2)CCN3)c1 [Compound 23, 1-(indolin-5-ylsulfonyl)-N-(4-(trifluoromethyl)phenyl)-1H-pyrrole-3-carboxamide]	12.8
4.6	6.2	CCC(C)c1ccc(NC(=O)c2ccn(S(=O)(=O)c3ccc4[nH]c(C)c(C)c4c3)c2)cc1 (stereo not drawn) [Compound 59, N-(4-(sec-butyl)phenyl)-1-((2,3-dimethyl-1H-indol-5-yl)sulfonyl)-1H-pyrrole-3-carboxamide]	10.3
2.1	3.8	CCC(C)c1ccc(NC(=O)c2ccn(S(=O)(=O)c3ccc4[nH]cc(C)c4c3)c2)cc1 (stereo not drawn) [Compound 58, N-(4-(sec-butyl)phenyl)-1-((3-methyl-1H-indol-5-yl)sulfonyl)-1H-pyrrole-3-carboxamide]	14
4.3	5.8	CC(C)c1ccc(NC(=O)c2ccn(S(=O)(=O)c3ccc4[nH]ccc4c3)c2)cc1 [Compound 37, 1-((1H-indol-5-yl)sulfonyl)-N-(4-isopropylphenyl)-1H-pyrrole-3-carboxamide]	10.8
4	17.3	CC(C)(C)c1ccc(S(=O)(=O)n2ccc(C(=O)Nc3ccc(F)cc3)c2)cc1 [Compound 92, 1-((4-(tert-butyl)phenyl)sulfonyl)-N-(4-fluorophenyl)-1H-pyrrole-3-carboxamide]	16.6
3.9	3.9	CCC(C)c1ccc(NC(=O)c2ccn(S(=O)(=O)c3ccc4[nH]c(C)cc4c3)c2)cc1 (stereo not drawn) [Compound 57, N-(4-(sec-butyl)phenyl)-1-((2-methyl-1H-indol-5-yl)sulfonyl)-1H-pyrrole-3-carboxamide]	7.22
4.1	6.3	O=C(Nc1cccc(F)c1)c1ccn(S(=O)(=O)c2ccc3[nH]ccc3c2)c1 [Compound 49, 1-((1H-indol-5-yl)sulfonyl)-N-(3-fluorophenyl)-1H-pyrrole-3-carboxamide]	15.4
6.1	8.9	CCC(C)c1ccccc1NC(=O)c1ccn(S(=O)(=O)c2ccc3[nH]ccc3c2)c1 (stereo not drawn) [Compound 36, 1-((1H-indol-5-yl)sulfonyl)-N-(2-(sec-butyl)phenyl)-1H-pyrrole-3-carboxamide]	22.2
20	37.4	CCC(C)c1ccc(NC(=O)c2ccn(S(=O)(=O)c3ccc4c(c3)CCN4)c2)cc1 (stereo not drawn) [Compound 21, N-(4-(sec-butyl)phenyl)-1-(indolin-5-ylsulfonyl)-1H-pyrrole-3-carboxamide]	27.1
22.3	25.8	CCC(C)c1ccc(NC(=O)N2CCN(S(=O)(=O)c3ccc4[nH]ccc4c3)CC2)cc1 (stereo not drawn) [Compound 15, 4-((1H-indol-5-yl)sulfonyl)-N-(4-(sec-butyl)phenyl)piperazine-1-carboxamide]	14.9
> 100	19.9	CCC(C)c1ccc(NC(=O)C2CCN(S(=O)(=O)c3ccc4c(c3)CCN4)CC2)cc1 (stereo not drawn) [Compound 3, N-(4-(sec-butyl)phenyl)-1-(indolin-5-ylsulfonyl) piperidine-4-carboxamide]	19.3
8.85	12.8	CCCc1ccc(NC(=O)c2ccn(S(=O)(=O)c3ccc4[nH]ccc4c3)c2)cc1 [Compound 96, 1-((1H-indol-5-yl)sulfonyl)-N-(4-propylphenyl)-1H-pyrrole-3-carboxamide]	12.2

More lines, now with the values behind:

Structure (SMILES)	IC50 (A2780 (ovarian) cells) [µM]	IC50 (A549 (NSCLC) cells) [µM]	IC50 [1] [µM]
O=C(Nc1ccc(C(F)(F)F)cc1)C1CCN(S(=O)(=O)c2ccc3c(c2)CCN3)CC1 [Compound 5, 1-(indolin-5-ylsulfonyl)-N-(4-(trifluoromethyl)phenyl)piperidine-4-carboxamide]	14.8	39.6	27.4
O=C(Nc1ccccc1F)c1ccn(S(=O)(=O)c2ccc3[nH]ccc3c2)c1 [Compound 50, 1-((1H-indol-5-yl)sulfonyl)-N-(2-fluorophenyl)-1H-pyrrole-3-carboxamide]	1.8	4	11.5
CCC(C)c1ccc(NC(=O)C2CCN(S(=O)(=O)c3ccn(C)c3)CC2)cc1 (stereo not drawn) [Compound 28, N-(4-(sec-butyl)phenyl)-1-((1-methyl-1H-pyrrol-3-yl)sulfonyl)piperidine-4-carboxamide]	24.7	13	11.7
CCC(C)c1ccc(NC(=O)C2CCN(S(=O)(=O)c3ccc4cc[nH]c4n3)CC2)cc1 (stereo not drawn) [Compound 65, 1-((1H-pyrrolo[2,3-b]pyridin-6-yl)sulfonyl)-N-(4-(sec-butyl)phenyl) piperidine-4-carboxamide]	22.3	16.2	12.5
CC(C)(C)c1ccc(S(=O)(=O)n2ccc(C(=O)NCCc3ccc(F)cc3)c2)cc1 [Compound 89, 1-((4-(tert-butyl)phenyl)sulfonyl)-N-(4-fluorophenethyl)-1H-pyrrole-3-carboxamide]	2.8	6.7	15.6
O=C(Nc1ccc(Cl)c(Cl)c1)c1ccn(S(=O)(=O)c2ccc3[nH]ccc3c2)n1 [Compound 83, 1-((1H-indol-5-yl)sulfonyl)-N-(3,4-dichlorophenyl)-1H-pyrazole-3-carboxamide]	9.31	14.3	13.1
Cc1ccc(NC(=O)C2CCN(S(=O)(=O)c3ccc4[nH]ccc4c3)CC2)cc1O [Compound 7, 1-((1H-indol-5-yl)sulfonyl)-N-(3-hydroxy-4-methylphenyl)piperidine-4-carboxamide]	41.4	44.4	32.6
O=C(Nc1ccc(C(F)(F)F)cc1)c1ccn(S(=O)(=O)c2ccc3[nH]ccc3c2)n1 [Compound 78, 1-((1H-indol-5-yl)sulfonyl)-N-(4-(trifluoromethyl)phenyl)-1H-pyrazole-3-carboxamide]	5.44	18.4	21.6
O=C(Nc1cccc(C(F)(F)F)c1)C1CCN(S(=O)(=O)c2ccc3[nH]ccc3c2)CC1 [Compound 63, 1-((1H-indol-5-yl)sulfonyl)-N-(3-(trifluoromethyl)phenyl) piperidine-4-carboxamide]	10.9	12.6	13.5
O=C(Nc1cccc(C(F)(F)F)c1)c1ccn(S(=O)(=O)c2ccc3[nH]ccc3c2)c1 [Compound 46, 1-((1H-indol-5-yl)sulfonyl)-N-(3-(trifluoromethyl)phenyl)-1H-pyrrole-3-carboxamide]	7.1	7.7	14.7
CC(C)c1ccc(NC(=O)c2ccn(S(=O)(=O)c3ccc4[nH]ccc4c3)n2)cc1F [Compound 108, 1-((1H-indol-5-yl)sulfonyl)-N-(3-fluoro-4-isopropylphenyl)-1H-pyrazole-3-carboxamide]	8.71	4.09	9.71
O=C(Nc1ccc(C(F)(F)F)cc1)N1CCN(S(=O)(=O)c2ccc3[nH]ccc3c2)CC1 [Compound 17, 4-((1H-indol-5-yl)sulfonyl)-N-(4-(trifluoromethyl)phenyl)piperazine-1-carboxamide]	13.9	6.5	22.9
CC(C)(C)c1ccc(NC(=O)c2ccn(S(=O)(=O)c3ccc4[nH]ccc4c3)n2)cc1 [Compound 113, 1-((1H-indol-5-yl)sulfonyl)-N-(4-(tert-butyl)phenyl)-1H-pyrazole-3-carboxamide]	8.37	7.22	9.41
